Source: ChEMBL document CHEMBL4765407, “Design, synthesis and high antitumor potential of new unsymmetrical bisacridine derivatives towards human solid tumors, specifically pancreatic cancers and their unique ability to stabilize DNA G-quadruplexes” (Eur J Med Chem, 2020)
pIC50: −log10 of the molar value.

Legend:
PANC-1 = assay: Cytotoxicity against human PANC-1 cells assessed as reduction in cell viability measured after 72 hrs by SRB assay; format: functional, cell-based; details: PANC-1, 72 h
W256 [1] = assay: Antitumour activity against Walker 256 adenocarcinoma cells implanted in Wistar rat assessed as increase in animal survival rate by measuring T/C ratio at 5 mg/kg, ip qd for 3 days administered on day 3,4,5 after tumor cell transplantation; format: functional; details: time 3 day
MIA PaCa-2 [2] = assay: Cytotoxicity against human MIA PaCa-2 cells assessed as reduction in cell viability measured after 72 hrs by SRB assay; format: functional, cell-based; details: MIA PaCa-2, 72 h
DU-145 [3] = assay: Cytotoxicity against human DU-145 cells assessed as reduction in cell viability measured after 72 hrs by SRB assay; format: functional, cell-based; details: DU-145, 72 h
HT-29 = assay: Cytotoxicity against human HT-29 cells assessed as reduction in cell viability measured after 72 hrs by SRB assay; format: functional, cell-based; details: HT-29, 72 h
W256 [4] = assay: Antitumour activity against Walker 256 adenocarcinoma cells implanted in Wistar rat assessed as increase in animal survival rate by measuring T/C ratio at 20 mg/kg, ip qd for 3 days administered on day 3,4,5 after tumor cell transplantation; format: functional; details: time 3 day
NCI-H460 = assay: Cytotoxicity against human NCI-H460 cells assessed as reduction in cell viability measured after 72 hrs by SRB assay; format: functional, cell-based; details: NCI-H460, 72 h
LNCaP = assay: Cytotoxicity against human LNCaP cells assessed as reduction in cell viability measured after 72 hrs by SRB assay; format: functional, cell-based
W256 [5] = assay: Antitumour activity against Walker 256 adenocarcinoma cells implanted in Wistar rat assessed as increase in animal survival rate by measuring T/C ratio at 1.25 mg/kg, ip qd for 3 days administered on day 3,4,5 after tumor cell transplantation; format: functional; details: time 3 day
HCT-116 [6] = assay: Cytotoxicity against human HCT-116 cells assessed as reduction in cell viability measured after 72 hrs by SRB assay; format: functional, cell-based; details: HCT-116, 72 h
Quadruplex DNA [7] = assay: Stabilization of 5'-FAM/3'-TAMRA labeled telomeric G4 quadruplex DNA F21T (unknown origin) assessed as change in melting temperature at 10 microM measured after 15 mins by FRET assay; format: nucleic-acid assay
ASPC1 = assay: Cytotoxicity against human ASPC1 cells assessed as reduction in cell viability measured after 72 hrs by SRB assay; format: functional, cell-based; details: ASPC1, 72 h
MIA PaCa-2 [8] = assay: Antitumour activity against human MIA PaCa-2 cells xenografted in Crl:Nu-Foxnl nu mouse assessed as inhibition of tumour growth at total effective dose of 32 mg/kg, iv measured on day 26; format: functional; details: MIA PaCa-2, iv, 624 h, time 26 day, read-out: TGI
HCT-116 [9] = assay: Antitumour activity against human HCT-116 cells xenografted in Crl:Nu-Foxnl nu mouse assessed as inhibition of tumour growth at total effective dose of 5 mg/kg, ip measured on day 16; format: functional; details: HCT-116, ip, 384 h, time 16 day, read-out: TGI
MDA-MB-231 = assay: Cytotoxicity against human MDA-MB-231 cells assessed as reduction in cell viability measured after 72 hrs by SRB assay; format: functional, cell-based; details: MDA-MB-231, 72 h
UMUC3 = assay: Cytotoxicity against human UMUC3 cells assessed as reduction in cell viability measured after 72 hrs by SRB assay; format: functional, cell-based; details: UMUC3, 72 h
Quadruplex DNA [10] = assay: Stabilization of 5'-FAM/3'-TAMRA labeled c-Myc promoter G4 quadruplex DNA FPu18 (unknown origin) assessed as change in melting temperature at 10 microM measured after 15 mins by FRET assay; format: nucleic-acid assay
DU-145 [11] = assay: Antitumour activity against human DU-145 cells xenografted in Crl:Nu-Foxnl nu mouse assessed as inhibition of tumour growth at total effective dose of 6 mg/kg, ip measured on day 35; format: functional; details: DU-145, ip, 840 h, time 35 day, read-out: TGI
Quadruplex DNA [12] = assay: Stabilization of 5'-FAM/3'-TAMRA labeled K-Ras G4 quadruplex DNA (unknown origin) assessed as change in melting temperature at 10 microM measured after 15 mins by FRET assay; format: nucleic-acid assay
MCF7 = assay: Cytotoxicity against human MCF7 cells assessed as reduction in cell viability measured after 72 hrs by SRB assay; format: functional, cell-based; details: MCF7, 72 h
DU-145 [13] = assay: Antitumour activity against human DU-145 cells xenografted in Crl:Nu-Foxnl nu mouse assessed as inhibition of tumour growth at total effective dose of 24 mg/kg, ip measured on day 35; format: functional; details: DU-145, ip, 840 h, time 35 day, read-out: TGI
W256 [14] = assay: Antitumour activity against Walker 256 adenocarcinoma cells implanted in Wistar rat assessed as increase in animal survival rate by measuring T/C ratio at 1 mg/kg, ip qd for 3 days administered on day 3,4,5 after tumor cell transplantation; format: functional; details: time 3 day
PC-3 = assay: Cytotoxicity against human PC-3 cells assessed as reduction in cell viability measured after 72 hrs by SRB assay; format: functional, cell-based; details: PC-3, 72 h

Nc1ccn([C@@H]2O[C@H](CO)[C@@H](O)C2(F)F)c(=O)n1 [GEMCITABINE]
pIC50 (PANC-1): 7.66

Cc1ccc([N+](=O)[O-])c2c(NCCCNCCNCCCNc3ccc([N+](=O)[O-])c4[nH]c5ccccc5c(=O)c34)c3ccccc3nc12
pIC50 (PANC-1): 6.85
T/C (W256 [1]): 350%
pIC50 (MIA PaCa-2 [2]): 6.96
pIC50 (DU-145 [3]): 7.06

Cc1ccc([N+](=O)[O-])c2c(NCCCN(C)CCCNc3ccc([N+](=O)[O-])c4[nH]c5ccc(O)cc5c(=O)c34)c3ccccc3nc12
pIC50 (HT-29): 6.70
T/C (W256 [4]): 400%
pIC50 (NCI-H460): 7.34
pIC50 (DU-145 [3]): 7.14
pIC50 (LNCaP): 6.42

O=c1c2ccccc2[nH]c2c([N+](=O)[O-])ccc(NCCCNCCNCCCNc3c4ccccc4nc4cccc([N+](=O)[O-])c34)c12
pIC50 (PANC-1): 7.22
T/C (W256 [5]): 250%
pIC50 (MIA PaCa-2 [2]): 7.34
pIC50 (DU-145 [3]): 7.26

CCc1c2c(nc3ccc(OC(=O)N4CCC(N5CCCCC5)CC4)cc13)-c1cc3c(c(=O)n1C2)COC(=O)[C@]3(O)CC [IRINOTECAN]
pIC50 (HCT-116 [6]): 5.01
pIC50 (HT-29): 5.02

Cc1ccc([N+](=O)[O-])c2c(NCCCN3CCN(CCCNc4ccc([N+](=O)[O-])c5[nH]c6ccc(O)cc6c(=O)c45)CC3)c3ccccc3nc12
pIC50 (HT-29): 6.63
T/C (W256 [4]): 250%
pIC50 (NCI-H460): 7.33
pIC50 (DU-145 [3]): 7.21
pIC50 (LNCaP): 5.39

CN(CCCNc1c2ccccc2nc2cccc([N+](=O)[O-])c12)CCCNc1ccc([N+](=O)[O-])c2[nH]c3ccc(O)cc3c(=O)c12
ΔTm (Quadruplex DNA [7]): 34 °C
pIC50 (PANC-1): 7.49
pIC50 (ASPC1): 6.87
inhibition in vivo at 32 mg/kg (MIA PaCa-2 [8]): 30%
pIC50 (HCT-116 [6]): 7.82
pIC50 (HT-29): 7.66
inhibition in vivo at 5 mg/kg (HCT-116 [9]): 32%
pIC50 (MDA-MB-231): 7.70
pIC50 (UMUC3): 7.85
ΔTm (Quadruplex DNA [10]): 26.3 °C
pIC50 (NCI-H460): 7.85
inhibition in vivo at 6 mg/kg (DU-145 [11]): 60%
ΔTm (Quadruplex DNA [12]): 29.7 °C
pIC50 (MIA PaCa-2 [2]): 7.62
pIC50 (MCF7): 7.13
inhibition in vivo at 24 mg/kg (DU-145 [13]): 52%
T/C (W256 [14]): 350%
pIC50 (DU-145 [3]): 7.37
pIC50 (LNCaP): 7.28
pIC50 (PC-3): 7.28

Cc1ccc(NCCCNCCCNc2c3ccccc3nc3cccc([N+](=O)[O-])c23)c2c(=O)c3ccccc3[nH]c12
pIC50 (PANC-1): 6.42
T/C (W256 [5]): 300%
pIC50 (MIA PaCa-2 [2]): 6.55
pIC50 (MCF7): 6.64
pIC50 (DU-145 [3]): 6.74
